How the values were obtained:
FRBZ gene, β1D integrin = details: LiCl treatment, cited from earlier work
Wnt pathway [1] = assay: Western blot of Wnt pathway proteins in human myotubes after drug administration; format: cell-based; details: for active β-catenin: myotubes
Procedure: (§1) To obtain primary myoblasts, muscle biopsies were processed and cultured in monolayer according to the method described by Askanas (Neurology, 1975, 25, 58-67). To isolate the pure population of myoblasts and CD56-negative cells (CD56-), the protocol described previously (Jaka et al., Expert Reviews in Molecular Medicine, 2017, 19, e2) was used, using immunomagnetic separation based on the early presence of the surface marker CD56 (Miltenyi Biotec, 130-050-401).
(§2) Myoblasts were cultured in proliferation medium (DMEM, M-199, Insulin, Glutamine and penicillin-streptomycin) with 10% FBS and growth factors at 37° C. in 5% CO2 air incubator. When myoblasts reached confluence, the FBS concentration was reduced to 2% and growth factors were removed from the medium, promoting fusion and production of myotubes.
(§3) VP0.7 was provided by Dr. Ana Martínez (from The Center for Biological Research, CSIC). It was administered at 1.2 μM, whereas LiCl (Sigma-Aldrich, L7026) was used for comparative purposes at a final concentration of 10 mM. VP0.7 and LiCl were administered at the above referred concentrations to myotubes at eight days of differentiation, and VP0.7 also to skin fibroblasts and to CD56-cells. Negative controls, in the case of VP0.7, were performed with DMSO (Fisher Scientific, BP-231). At 48 hours after drug administration, RNA and proteins were extracted.
(§4) Protein collection from muscle samples and cell cultures, as well as Western blot procedure, were performed as previously described (Jaka et al., Expert Reviews in Molecular Medicine, 2017, 19, e2).
We proceeded to analyse the expression of the GSK3β protein, as well as its downstream effect on the Wnt pathway in myotubes from controls and patients after drug administration. […] As a control assay, lithium was administered and an increase in active β-catenin was verified (FIG. 2C).

Akt/mTOR pathway = assay: Western blot of Akt/mTOR pathway proteins in human myotubes; format: cell-based
Procedure: as §1, §2, §3, §4
Furthermore, downstream of the mTOR pathway, the p70S6K and RPS6 proteins were analysed. After administration of VP0.7, the expression of total p70S6K, its phosphorylation (Thr421/Ser424 and Thr389), as well as the levels of phosphorylation of the RPS6 protein (Ser235/Ser236) increased in the patient's sample. In the control, the effect observed after the treatments is very slight (FIG. 3B).
For comparative purposes, LiCl was also administered in control and patient's myotubes and the phosphorylation of p70S6K and RPS6 proteins were also tested. The results are depicted in FIG. 4.

GSK3β = details: low dose, Whitley et al. 2020, cited from earlier work
GSK3 [2] = details: low therapeutic dose 0.5 mM, Kurgan et al. 2019; cited from earlier work
mTOR pathway [3] = assay: Western blot of mTOR pathway proteins in CD56- cells; format: cell-based, human; details: VP0.7 1.2 μM, 48 h
Excerpt: as §1, §3, §4

GSK3 [4] = target: GSK3 (Homo sapiens, UniProt P49841); details: highly selective and allosteric modulator; Luna-Medina 2007, Palomo 2011; cited from earlier work
[5] = tested on: CAPN3, FOS, ANOS1 and ITGB1BP2 genes; assay: Quantitative real-time PCR of deregulated genes in LGMDR1 myotubes; format: cell-based, human; details: VP0.7 1.2 μM, 48 h
Procedure: as §3
RNA extraction from primary myoblast/myotubes was performed with an RNeasy Mini Kit (Qiagen). In the case of the muscle biopsies, which were snap frozen and stored at −80° C. until use, total RNA was obtained using an RNA-Plus Kit (QBiogene).
The isolated RNA was reverse-transcribed to first-strand complementary DNA (cDNA) in a final volume of 50 μl using a High Capacity cDNA Reverse Transcription Kit (Applied Biosystems), according to the manufacturer's instructions. The expression levels of CAPN3, FOS, ITGB1BP2, ANOS1 and GAPDH genes in the samples were assessed by real-time quantitative PCR with TaqMan probes (Table Il below) using the ‘CFX384 Real-Time PCR Detection System’ (Bio-Rad).
On the other hand, in previous studies we had already described that activating the Wnt pathway through the silencing of the FRZB gene or with treatment with lithium, the expression of some altered genes in the muscle of patients was recovered (Jaka et al., Expert Reviews in Molecular Medicine, 2017, 19, e2; Casas-Fraile et al., Orphanet Journal of Rare Diseases, 2020, 15(1), 119). Thus, their expression was analysed after administering VP0.7.

integrin β1D and melusin = assay: Western blot of costamere structural proteins in human myotubes; format: cell-based; details: VP0.7 1.2 μM, 48 h
Procedure: as §3, §4
Likewise, the expression of some of the structural proteins that are part of the costamere, whose expression is altered in LGMDR1 patients, was analysed. After drug administration, an increase in integrin β1D and melusin was also observed (FIG. 2E).

Wnt pathway [6] = assay: Western blot of Wnt pathway proteins in CD56- cells; format: cell-based, human; details: VP0.7 1.2 μM, 48 h
Excerpt: as §1, §3, §4

mTOR pathway [7] = assay: Western blot of mTOR pathway protein in skin fibroblasts; format: cell-based, human; details: VP0.7 1.2 μM, 48 h
Procedure: (§5) Skin fibroblasts from healthy controls and from LGMDR1 patients were provided by Dr. Ana Aiastui (Biodonostia Health Research Institute, Cell Culture and Histology Platform). Cells were cultured in Dulbecco's modified Eagle's medium (DMEM, Gibco, 41966-029) supplemented with 10% FBS (Gibco, 10270-106) and 1% penicillin-streptomycin (Gibco, 15140-122) at 37° C. in a 5% CO2 air incubator. Human fibroblasts were cultured at a density of 4×10^4 cells/ml.
as §3, §4

Wnt pathway [8] = assay: Western blot of Wnt pathway proteins in skin fibroblasts; format: cell-based, human; details: VP0.7 1.2 μM, 48 h
Procedure: as §5, §3, §4

[9] = LiCl 10 mM, drug administration +, myotubes, control 09-23
[10] = LiCl 10 mM, drug administration +, myotubes, control 13-07
[11] = LiCl 10 mM, drug administration +, myotubes, patient 09-21
[12] = LiCl 10 mM, drug administration +, myotubes, patient 09-24
[13] = LiCl 10 mM, drug administration +, myotubes, patient 09-25
[14] = VP0.7 1.2 μM, 48 h, patient's myotubes
[15] = VP0.7 1.2 μM, 48 h, patient's sample, myotubes
[16] = VP0.7 1.2 μM, myotubes, control 13-05, relative to the same sample without treatment
[17] = VP0.7 1.2 μM, myotubes, patient 09-25, relative to the same sample without treatment

Chain of GSK3 (Homo sapiens, UniProt P49841) (P49841 whole entry): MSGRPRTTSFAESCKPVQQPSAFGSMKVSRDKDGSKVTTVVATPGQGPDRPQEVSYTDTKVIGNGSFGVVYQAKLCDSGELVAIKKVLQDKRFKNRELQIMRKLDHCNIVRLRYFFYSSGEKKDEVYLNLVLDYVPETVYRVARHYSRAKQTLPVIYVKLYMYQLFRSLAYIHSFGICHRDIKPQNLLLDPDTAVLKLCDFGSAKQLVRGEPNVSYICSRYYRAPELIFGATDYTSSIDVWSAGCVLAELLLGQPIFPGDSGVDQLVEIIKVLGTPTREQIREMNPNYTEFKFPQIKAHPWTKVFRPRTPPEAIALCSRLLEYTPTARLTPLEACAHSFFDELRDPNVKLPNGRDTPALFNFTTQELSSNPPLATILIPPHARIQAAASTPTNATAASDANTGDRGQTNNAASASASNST

In the case of `[Cl-].[Li+]` [LiCl, reference compound], the “expression of the FRBZ gene” value (FRBZ gene, β1D integrin; Jaka et al. 2017) is listed as “lower levels”, the “β1D adult isoform of the integrin” value (FRBZ gene, β1D integrin; primary myotubes) is listed as “higher levels” and the “active β-catenin” value (Wnt pathway [1]; LiCl 10 mM, 48 h, control assay) is listed as “increase”. The “proteins involved in the mTOR pathway and their phosphorylation forms” value (Akt/mTOR pathway; LiCl 10 mM, 48 h, control and patient's myotubes) was “did not provide any increase”, the “P-RPS6 (S235-S236)” value (Akt/mTOR pathway; [9]) was 3.8 and the “P-p70S6K (T421-S424)” value (Akt/mTOR pathway; [9]) was 0.78. The “P-RPS6 (S235-S236)” value (Akt/mTOR pathway; [10]) was 3, the “P-p70S6K (T421-S424)” value (Akt/mTOR pathway; [10]) was 0.7 and the “P-RPS6 (S235-S236)” value (Akt/mTOR pathway; [11]) was 1.5. For the same compound, the “P-p70S6K (T421-S424)” value (Akt/mTOR pathway; [11]) was 0.5, the “P-RPS6 (S235-S236)” value (Akt/mTOR pathway; [12]) was 3 and the “P-p70S6K (T421-S424)” value (Akt/mTOR pathway; [12]) was 1.4. The “P-RPS6 (S235-S236)” value (Akt/mTOR pathway; [13]) was 2.5, the “P-p70S6K (T421-S424)” value (Akt/mTOR pathway; [13]) was 0.65 and the “inhibition of GSK3β” value (GSK3β) was “effective in inhibiting”. For the same compound, the “fatigue resistance in some muscles” value (GSK3β; via NFAT activation) was “enhances”, the “inhibition of GSK3” value (GSK3 [2]) was “inhibit” and the myoblast fusion (GSK3 [2]) was “augment”.
In the case of `CCCCCCCCCCCC(=O)NNC(=O)c1c(O)c2ccccc2n(CC)c1=O` [VP0.7, N′-dodecanoyl-1-ethyl-4-hydroxy-2-oxo-1,2-dihydroquinoline-3-carbohydrazide], the mTOR (mTOR pathway [3]) is reported as “no differences”, the “phosphorylation of RPS6” value (mTOR pathway [3]) is reported as “no differences” and the “phosphorylation of p70S6K” value (mTOR pathway [3]) is reported as “no differences”. The “inhibition of GSK3” value (GSK3 [4]) was “reversibly inhibits”, the “expression of ANOS1” value [5] was “increase” and the “expression of CAPN3” value [5] was “increase”. For the same compound, the “expression of FOS” value [5] was “increase”, the “expression of ITGB1BP2” value [5] was “increase” and the “total β-catenin expression” value (Wnt pathway [1]; VP0.7 1.2 μM, 48 h, myotubes day 8 of differentiation, controls and LGMDR1 patients) was “increase”. The “active β-catenin” value (Wnt pathway [1]; VP0.7 1.2 μM, 48 h, controls and LGMDR1 patients) was “increase”, the “inhibition of GSK3β kinase” value (Wnt pathway [1]; myotubes after drug administration) was “effective inhibition” and the “integrin β1D” value (integrin β1D and melusin) was “increase”. The melusin (integrin β1D and melusin) was “increase”, the “active form of β-catenin” value (Wnt pathway [6]) was “no significant alteration” and the “amount of total β-catenin” value (Wnt pathway [6]) was “no significant alteration”. For the same compound, the “phosphorylation of RPS6” value (mTOR pathway [7]) was “very slight increase”, the “active form of β-catenin” value (Wnt pathway [8]) was “did not show an increase” and the “phosphorylation of GSK3β(Ser9)” value (Wnt pathway [8]) was “did not show an increase”. For the same compound, the β-catenin (Wnt pathway [8]) was “did not show an increase”, the “effect on p70S6K and RPS6 expression/phosphorylation” value (Akt/mTOR pathway; VP0.7 1.2 μM, 48 h, control myotubes) was “very slight” and the “phosphorylation of mTOR (Ser2448)” value (Akt/mTOR pathway; [14]) was “significant increase”. For the same compound, the “phosphorylation of mTOR (Ser2481)” value (Akt/mTOR pathway; [14]) was “significant increase”, the “total mTOR” value (Akt/mTOR pathway; [14]) was “no significant changes” and the “expression of total p70S6K” value (Akt/mTOR pathway; [15]) was “increased”. For the same compound, the “p70S6K phosphorylation (Thr389)” value (Akt/mTOR pathway; [15]) was “increased”, the “p70S6K phosphorylation (Thr421/Ser424)” value (Akt/mTOR pathway; [15]) was “increased” and the “phosphorylation of the RPS6 protein (Ser235/Ser236)” value (Akt/mTOR pathway; [15]) was “increased”. The “P-p70S6K (T421-S424)” value (Akt/mTOR pathway; VP0.7 1.2 μM, myotubes, control 13-05, protein expression value relative to the same sample without treatment) was 1, the “P-RPS6 (S235-S236)” value (Akt/mTOR pathway; [16]) was 1.1 and the “P-p70S6K (T389)” value (Akt/mTOR pathway; [16]) was 0.94. For the same compound, the “P-p70S6K (T421-S424)” value (Akt/mTOR pathway; VP0.7 1.2 μM, myotubes, patient 09-25, protein expression value relative to the same sample without treatment) was 1.6, the “P-RPS6 (S235-S236)” value (Akt/mTOR pathway; [17]) was 2.8 and the “P-p70S6K (T389)” value (Akt/mTOR pathway; [17]) was 1.6.
